Test results from patent US11833160B2, “Ursodeoxycholic acid derivatives as HDAC inhibitors for the treatment of polycystic diseases” (UNIVERSIDAD DEL PAIS VASCO/EUSKAL HERRIKO UNIBERTSITATEA, priority 2017, dated 2023).

How the values were obtained:
human HDAC3/NcoR2 = biological target: T1, human HDAC3/NcoR2 (Homo sapiens, UniProt O15379); test: HDAC3 enzymatic activity assay (fluorogenic peptide); type: biochemical; details: 10-dose, 3-fold serial dilution, triplicate
T1 construct: human HDAC3 complex, full length with His C-terminal tag, MW=49.7 kDa; His (C); purchased BioMol SE-507; host or cells: baculovirus expression system
T1 sequence (O15379 whole entry): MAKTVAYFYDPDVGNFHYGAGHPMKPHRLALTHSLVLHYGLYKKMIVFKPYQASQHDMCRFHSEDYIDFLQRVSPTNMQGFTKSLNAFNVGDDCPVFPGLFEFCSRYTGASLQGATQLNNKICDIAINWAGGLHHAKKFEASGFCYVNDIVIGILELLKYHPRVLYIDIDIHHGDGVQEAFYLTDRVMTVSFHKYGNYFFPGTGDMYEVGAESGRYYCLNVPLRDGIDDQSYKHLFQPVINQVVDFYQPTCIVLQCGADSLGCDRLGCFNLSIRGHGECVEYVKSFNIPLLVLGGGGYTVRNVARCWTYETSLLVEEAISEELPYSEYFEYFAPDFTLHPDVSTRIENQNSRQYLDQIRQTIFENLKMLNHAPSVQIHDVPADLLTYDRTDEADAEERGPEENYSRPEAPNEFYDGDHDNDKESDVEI
T1 sequence (Q9Y618 395-489 partner limits assumed): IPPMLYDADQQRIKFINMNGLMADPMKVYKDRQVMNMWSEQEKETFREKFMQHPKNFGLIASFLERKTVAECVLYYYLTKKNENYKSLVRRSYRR
Procedure: (§1) Peptide substrates: all HDAC assays were performed using acetylated peptide substrates labeled with 7-amino-4-methylcoumarin (AMC): • Substrate for isoforms HDAC1, 2, 3, 6, 10, 11, and HeLa nuclear extract assays: acetylated fluorogenic peptide from p53 residues 379-382 (RHKKAc). • Substrate for isoforms HDAC4, 5, 7, 9: fluorogenic Boc-L-Lys (s-trifluoroacetyl)-AMC. • Substrate for HDAC8 assays: acetylated fluorogenic peptide from p53 residues 379-382 (RHKAcKAc).
50 μl of peptide substrate (see “peptide substrates” section above) and an optimal concentration of the corresponding enzyme (see “enzymes” section above) in the assay buffer at a final DMSO concentration of 1% were incubated in the presence of gradient concentrations of inhibitors (10-dose IC50 mode with 3-fold serial dilution) at 30° C. for 2 hours. The reactions were carried out in a 96-well microplate for fluorometry in a 50 μl reaction volume. After the deacetylation reaction, Fluor-de-Lys-Developer (BioMol Cat. #KI-105) was added to each well to digest the deacetylated substrate, thereby producing the fluorescent signal. The reaction was carried out for 45 minutes at 30° C. with 5% CO2; the fluorescent signal was then measured using an excitation wavelength of 360 nm and an emission wavelength of 460 nm in a microplate-reading fluorometer (GeminiXS, Molecular Devices, Sunnyvale, CA). […]

human HDAC2 = biological target: T2, human HDAC2 (Homo sapiens, UniProt Q92769); test: HDAC2 enzymatic activity assay (fluorogenic peptide); type: biochemical; details: 10-dose, 3-fold serial dilution, triplicate
T2 construct: His (C); purchased BioMol SE-500; host or cells: baculovirus / Sf9 cells
T2 sequence (Q92769 whole entry): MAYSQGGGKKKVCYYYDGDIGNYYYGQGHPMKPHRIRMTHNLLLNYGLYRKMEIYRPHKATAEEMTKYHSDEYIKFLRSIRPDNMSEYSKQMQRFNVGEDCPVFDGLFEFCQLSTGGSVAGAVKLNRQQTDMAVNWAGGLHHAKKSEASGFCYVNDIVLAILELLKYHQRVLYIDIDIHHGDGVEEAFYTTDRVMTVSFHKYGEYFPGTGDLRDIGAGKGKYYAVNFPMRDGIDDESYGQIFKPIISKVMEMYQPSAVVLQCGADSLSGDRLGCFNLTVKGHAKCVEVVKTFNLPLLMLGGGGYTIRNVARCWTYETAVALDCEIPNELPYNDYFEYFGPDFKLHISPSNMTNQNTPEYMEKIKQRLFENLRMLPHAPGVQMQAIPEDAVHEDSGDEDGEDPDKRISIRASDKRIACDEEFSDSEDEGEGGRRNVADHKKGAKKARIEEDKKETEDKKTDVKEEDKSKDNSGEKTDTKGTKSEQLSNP
Procedure: as §1
(§2) 50 μl of peptide substrate (see “peptide substrates” section above) and an optimal concentration of the corresponding enzyme (see “enzymes” section above) in the assay buffer at a final DMSO concentration of 1% were incubated in the presence of gradient concentrations of inhibitors (10-dose IC50 mode with 3-fold serial dilution) at 30° C. for 2 hours. The reactions were carried out in a 96-well microplate for fluorometry in a 50 μl reaction volume. After the deacetylation reaction, Fluor-de-Lys-Developer (BioMol Cat. #KI-105) was added to each well to digest the deacetylated substrate, thereby producing the fluorescent signal. The reaction was carried out for 45 minutes at 30° C. with 5% CO2; the fluorescent signal was then measured using an excitation wavelength of 360 nm and an emission wavelength of 460 nm in a microplate-reading fluorometer (GeminiXS, Molecular Devices, Sunnyvale, CA). A curve of deacetylated standard (Biomol, Cat. #KI-142; made from 100 μM with 1:2 dilution and 10 doses, 6 μl) allowed the conversion of the fluorescent signal into micromoles of deacetylated product. All experiments were performed in triplicate. The IC50s were calculated by fitting the experimental data to dose-response curve. DMSO was used as negative control; Trichostatin A (Biomol Cat. #GR-309) was used as positive control inhibitor.
(§3) Enzymatic activity assays were carried out in 11 HDAC enzymes, including HDAC6.

human HDAC1 = biological target: T3, human HDAC1 (Homo sapiens, UniProt Q13547); test: HDAC1 enzymatic activity assay (fluorogenic peptide); type: biochemical; details: 10-dose, 3-fold serial dilution, triplicate
T3 construct: GST (C); purchased BioMol SE-456; host or cells: baculovirus / Sf9 cells
T3 sequence (Q13547 whole entry): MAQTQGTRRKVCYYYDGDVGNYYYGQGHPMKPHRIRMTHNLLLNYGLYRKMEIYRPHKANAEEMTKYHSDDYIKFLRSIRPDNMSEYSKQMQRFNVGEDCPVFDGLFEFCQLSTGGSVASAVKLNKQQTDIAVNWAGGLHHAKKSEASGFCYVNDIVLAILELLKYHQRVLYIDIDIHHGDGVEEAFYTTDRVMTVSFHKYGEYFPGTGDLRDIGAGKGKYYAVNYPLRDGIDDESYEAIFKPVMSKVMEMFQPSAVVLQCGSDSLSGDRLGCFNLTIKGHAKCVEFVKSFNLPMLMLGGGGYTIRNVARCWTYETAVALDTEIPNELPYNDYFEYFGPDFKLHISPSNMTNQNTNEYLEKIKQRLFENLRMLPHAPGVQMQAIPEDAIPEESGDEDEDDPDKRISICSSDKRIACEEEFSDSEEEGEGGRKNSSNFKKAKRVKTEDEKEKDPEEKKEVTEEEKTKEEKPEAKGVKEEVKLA
Procedure: as §1, §2, §3

human HDAC6 = biological target: T4, human HDAC6 (Homo sapiens, UniProt Q9UBN7); test: HDAC6 enzymatic activity assay (fluorogenic peptide); type: biochemical; details: for IC50: 10-dose, 3-fold serial dilution, triplicate
T4 construct: GST (N); purchased BioMol SE-508; host or cells: baculovirus / Sf9 cells
T4 sequence (Q9UBN7 1-1215): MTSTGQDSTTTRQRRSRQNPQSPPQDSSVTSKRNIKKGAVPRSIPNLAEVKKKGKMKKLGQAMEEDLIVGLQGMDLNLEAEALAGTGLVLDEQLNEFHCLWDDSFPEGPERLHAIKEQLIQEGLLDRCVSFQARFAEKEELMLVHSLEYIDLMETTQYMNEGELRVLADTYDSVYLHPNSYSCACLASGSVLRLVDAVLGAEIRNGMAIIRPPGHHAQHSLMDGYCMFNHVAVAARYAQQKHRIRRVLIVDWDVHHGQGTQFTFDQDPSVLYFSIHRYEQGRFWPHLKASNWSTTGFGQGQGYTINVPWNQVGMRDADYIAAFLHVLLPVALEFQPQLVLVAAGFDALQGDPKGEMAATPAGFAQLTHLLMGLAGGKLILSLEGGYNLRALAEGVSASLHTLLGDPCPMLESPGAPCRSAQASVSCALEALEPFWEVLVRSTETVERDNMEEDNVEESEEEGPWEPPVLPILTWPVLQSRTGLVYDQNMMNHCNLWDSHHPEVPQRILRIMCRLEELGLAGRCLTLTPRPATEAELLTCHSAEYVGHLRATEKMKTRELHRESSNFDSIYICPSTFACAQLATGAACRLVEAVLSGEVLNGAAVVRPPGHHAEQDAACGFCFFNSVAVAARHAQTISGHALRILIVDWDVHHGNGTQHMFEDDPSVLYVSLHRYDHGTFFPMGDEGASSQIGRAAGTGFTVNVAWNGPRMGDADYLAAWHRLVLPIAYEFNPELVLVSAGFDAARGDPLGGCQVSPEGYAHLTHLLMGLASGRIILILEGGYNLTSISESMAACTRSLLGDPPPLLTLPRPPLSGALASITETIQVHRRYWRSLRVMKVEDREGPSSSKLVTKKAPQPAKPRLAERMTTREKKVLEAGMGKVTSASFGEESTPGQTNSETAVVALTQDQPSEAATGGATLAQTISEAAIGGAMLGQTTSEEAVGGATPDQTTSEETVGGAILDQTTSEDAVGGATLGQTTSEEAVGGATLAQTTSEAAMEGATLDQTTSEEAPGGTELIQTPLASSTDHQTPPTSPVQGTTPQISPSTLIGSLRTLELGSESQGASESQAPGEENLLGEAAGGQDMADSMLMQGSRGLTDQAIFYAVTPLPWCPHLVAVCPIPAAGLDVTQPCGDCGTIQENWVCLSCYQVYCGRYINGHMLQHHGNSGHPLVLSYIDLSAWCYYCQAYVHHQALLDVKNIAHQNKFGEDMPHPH
Procedure: as §1, §2, §3

[1] = tested on: polycystic human cholangiocytes; test: Intracellular Ca^2+ measurement (Fluo-4 AM); type: cell-based
Description: As described previously [Banales J M et al. Hepatology 2009; Perugorria M J et al. Nature Reviews G&H; Munoz-Garrido P et al. Journal of Hepatology 2015], polycystic (human and rat) cholangiocytes are characterized by a decrease in intracellular Ca^2+ levels, which promotes their proliferation. Furthermore, it has been proven that chronic treatment with UDCA is capable of partially inhibiting the proliferation of polycystic human cholangiocytes through the normalization of intracellular Ca^2+ levels in experimental models [Munoz-Garrido P et al. Journal of Hepatology 2015] and patients [D'Agnolo H M A, et al. Journal of Hepatology 2016] with PLD. […] To that end, the “Fluo-4 AM” (Thermo Fisher Scientific) intracellular Ca^2+ measurement method was used. A Ca^2+ ionophore (i.e., A23187, Sigma) was used as positive control.

C[C@H](CCC(=O)NCc1ccc(C(=O)NO)cc1)[C@H]1CC[C@H]2[C@@H]3[C@@H](O)C[C@@H]4C[C@H](O)CC[C@]4(C)[C@H]3CC[C@]12C [Compound Ia] showed an IC50 (human HDAC3/NcoR2) of 8.37 µM, an IC50 (human HDAC2) of 18.8 µM and an IC50 (human HDAC1) of 10.1 µM. For the same compound, the “selectivity and inhibitory capacity with respect to HDAC6 enzyme” value (human HDAC6) was “nanomolar range”, the IC50 (human HDAC6) was 0.058 µM and the HDAC6 selectivity proportion (human HDAC6; matches IC50 HDAC1 / IC50 HDAC6) was 174. The “intracellular Ca^2+ levels” value [1] was “increasing intracellular Ca^2+ levels”.
C[C@H](CCC(=O)NCC(=O)NCc1ccc(C(=O)NO)cc1)[C@H]1CC[C@H]2[C@@H]3[C@@H](O)C[C@@H]4C[C@H](O)CC[C@]4(C)[C@H]3CC[C@]12C [Ib, 4-((2-((R)-4 ((3R,5S,7S,8R,9S,10S,13R,14S,17R)-3,7-dihydroxy-10,13-dimethylhexadecahydro-1H-cyclopenta[a]phenanthren-17-yl)pentanamide)acetamido)methyl)-N-hydroxybenzamide] gave an IC50 (human HDAC3/NcoR2) of 9.99 µM, an IC50 (human HDAC2) of 13.2 µM and an IC50 (human HDAC1) of 9.01 µM. For the same compound, the “selectivity and inhibitory capacity with respect to HDAC6 enzyme” value (human HDAC6) was “nanomolar range”, the IC50 (human HDAC6) was 0.0561 µM and the “intracellular Ca^2+ levels” value [1] was “increasing intracellular Ca^2+ levels”.
